Among the data in US7741350B1 (Cara Therapeutics, Inc., priority 2009, dated 2010) are EC50 values, retold here.

For assay [1], the target named is human CB2 receptor (hCB2) (Homo sapiens, UniProt P34972). Nature of the assay: cAMP assay at human CB2 receptor. It counts as cell-based. The conditions noted are these: hCB2R, maximum measurable range 30 μM. The method, then:
(§1) TR-FRET was measured using a 330-380 nm excitation filter, 615 nm and 665 nm emission filters, dichroic minor 380 nm and Z=10 mm. cAMP concentrations in each well were back-calculated from a cAMP standard curve run concurrently during each assay. Each plate contained 16 wells of forskolin stimulated cells and 16 wells of forskolin plus 1 μM CP55,940-treated cells. Concentrations of cAMP were expressed as a percent of the difference of these two groups of wells.
In general terms: cAMP levels reflect the balance of adenylyl cyclase and phosphodiesterase activity.

Assay [2] concerns the target human CB1 receptor (hCB1) (Homo sapiens, UniProt P21554). Nature of the assay: cAMP assay at human CB1 receptor. The format is cell-based. The note with it: hCB1R; maximum measurable range 30 μM; read-out: EC50 (Potency at Human CB1 determined by cAMP Assay). The protocol:
The ability of each of the compounds to act as agonists or inverse agonists at human CB2 and CB1 receptors (hCB2, hCB1, respectively) and at the rat CB2 receptor (rCB2) was determined by measuring changes in intracellular cyclic AMP (cAMP) levels as described in U.S. Pat. No. 7,517,874.
as §1, with “wells. Concentration-response data including EC50 (the concentration of compound producing 50% of the maximal response) and intrinsic activity (the percent maximal activation compared to full activation by CP55, 940) were determined using a four-parameter non-linear regression algorithm (CambridgeSoft Bioassay).” for “wells.”

Where [3] appears, read: EC50 (Potency at Human CB2 determined by cAMP Assay).
Setting [4] is: read-out: EC50 (Potency at Human CB2 determined by cAMP Assay).

SMILES strings stand for the structures. pEC50: −log10 of the molar value. Like-named read-outs stand apart in the source and are kept apart here.

Sequence of human CB2 receptor (hCB2) (P34972 whole entry): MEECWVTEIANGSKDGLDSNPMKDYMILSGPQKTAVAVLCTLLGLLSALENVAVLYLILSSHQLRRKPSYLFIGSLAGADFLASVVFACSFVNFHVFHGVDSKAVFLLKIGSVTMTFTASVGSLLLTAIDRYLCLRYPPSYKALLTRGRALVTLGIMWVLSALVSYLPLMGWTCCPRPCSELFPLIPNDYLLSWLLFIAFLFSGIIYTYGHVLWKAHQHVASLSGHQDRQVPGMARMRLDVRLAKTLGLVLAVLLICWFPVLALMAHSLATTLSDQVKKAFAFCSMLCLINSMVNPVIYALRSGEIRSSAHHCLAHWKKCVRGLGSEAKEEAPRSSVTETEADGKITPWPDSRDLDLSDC
Sequence of human CB1 receptor (hCB1) (P21554 whole entry): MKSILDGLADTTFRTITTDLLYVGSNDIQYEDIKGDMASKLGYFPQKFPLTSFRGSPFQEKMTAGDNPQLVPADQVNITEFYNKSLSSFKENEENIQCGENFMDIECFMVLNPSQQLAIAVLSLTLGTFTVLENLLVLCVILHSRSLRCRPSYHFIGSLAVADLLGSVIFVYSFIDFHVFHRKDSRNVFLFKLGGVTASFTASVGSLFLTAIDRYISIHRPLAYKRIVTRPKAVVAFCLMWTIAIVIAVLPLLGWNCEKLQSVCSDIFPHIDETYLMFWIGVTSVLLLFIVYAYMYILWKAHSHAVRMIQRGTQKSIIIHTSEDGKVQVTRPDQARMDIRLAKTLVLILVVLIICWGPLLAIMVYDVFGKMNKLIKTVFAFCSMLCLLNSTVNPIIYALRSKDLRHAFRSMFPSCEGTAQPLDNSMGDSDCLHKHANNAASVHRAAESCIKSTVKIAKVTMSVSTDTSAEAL

Broadly, the pEC50 is −log10 of the EC50, conventionally taken in molar units. As to `CNC(=O)[C@@H](NC(=O)n1nc(-c2ccc(F)c(F)c2)c2c1CCNC2)C(C)(C)C` [Compound 52, (S)-3-(3,4-difluorophenyl)-N-(3,3-dimethyl-1-(methylamino)-1-oxobutan-2-yl)-4,5,6,7-tetrahydro-1H-pyrazolo[4,3-c]pyridine-1-carboxamide], the negative logarithm of the EC50 (pEC50) in assay [1] (setting [3]) and in assay [2] was more than 6.00 each time.

On to `CN1CCc2c(c(-c3ccc(F)c(F)c3)nn2C(=O)N[C@@]23C[C@@H]4C[C@@H](C[C@@](O)(C4)C2)C3)C1` [Compound 55], for which the pEC50 in assay [1] (setting [3]) and in assay [2] was more than 6.00 each time.

For the compound `CCOC(=O)CN1CCCc2c1c(-c1ccc(F)c(F)c1)nn2C(=O)N[C@H](C(=O)NC)C(C)(C)C` [Compound 100, (S)-ethyl 2-(3-(3,4-difluorophenyl)-1-(3,3-dimethyl-1-(methylamino)-1-oxobutan-2-ylcarbamoyl)-6,7-dihydro-1H-pyrazolo[4,3-b]pyridin-4(5H)-yl)acetate], the pEC50 in assay [1] (setting [3]) and in assay [2] was more than 6.00 each time.

Turning to `CN1CCc2c(c(-c3ccc(F)c(F)c3)nn2C(=O)N[C@H](C(=O)N2CC[C@H](O)C2)C(C)(C)C)C1` [Compound 47, 3-(3,4-difluorophenyl)-N—((S)-1-((S)-3-hydroxypyrrolidin-1-yl)-3,3-dimethyl-1-oxobutan-2-yl)-5-methyl-4,5,6,7-tetrahydro-1H-pyrazolo[4,3-c]pyridine-1-carboxamide], the pEC50 is less than 6.00 in assay [1] (setting [4]) and more than 6.00 in assay [2].

In the case of `CN1CCc2c(c(-c3cc(F)c(F)cc3F)nn2C(=O)N[C@H](C(=O)NCCO)C(C)(C)C)C1` [Compound 40, (S)—N-(1-(2-hydroxyethylamino)-3,3-dimethyl-1-oxobutan-2-yl)-5-methyl-3-(2,4,5-trifluorophenyl)-4,5,6,7-tetrahydro-1H-pyrazolo[4,3-c]pyridine-1-carboxamide], the pEC50 in assay [1] (setting [3]) and in assay [2] was more than 6.00 in each case.

In the case of `CNC(=O)[C@@H]1CCCN1C(=O)[C@@H](NC(=O)n1nc(-c2cc(F)c(F)cc2F)c2c1CCN(C)C2)C(C)(C)C` [Compound 76, N—((S)-3,3-dimethyl-1-((S)-2-(methyl-carbamoyl)pyrrolidin-1-yl)-1-oxobutan-2-yl)-5-methyl-3-(2,4,5-trifluorophenyl)-4,5,6,7-tetrahydro-1H-pyrazolo[4,3-c]pyridine-1-carboxamide], the pEC50 was less than 6.00 in assay [1] (setting [4]) and more than 6.00 in assay [2].

In the case of `CN1CCc2c(c(-c3cc(F)ccc3F)nn2C(=O)N[C@H](CO)C(C)(C)C)C1` [Compound 66, (S)-3-(2,5-difluorophenyl)-N-(1-hydroxy-3,3-dimethylbutan-2-yl)-5-methyl-4,5,6,7-tetrahydro-1H-pyrazolo[4,3-c]pyridine-1-carboxamide], the figures for the pEC50 in assay [1] (setting [4]) and in assay [2] were less than 6.00 and more than 6.00, respectively.

For the compound `CNC(=O)[C@@H](NC(=O)n1nc(-c2cc(F)c(F)cc2F)c2c1CCOC2)C(C)(C)C` [Compound 30, (S)—N-(3,3-dimethyl-1-(methylamino)-1-oxobutan-2-yl)-3-(2,4,5-trifluorophenyl)-6,7-dihydropyrano[4,3-c]pyrazole-1(4H)-carboxamide], the pEC50 in assay [1] (setting [3]) and in assay [2] was more than 6.00 each time.

For `CC(C)C[C@H](NC(=O)[C@@H](NC(=O)n1nc(-c2cc(F)c(F)cc2F)c2c1CCN(C)C2)C(C)(C)C)C(N)=O` [Compound 72, N—((S)-1-((S)-1-amino-4-methyl-1-oxopentan-2-ylamino)-3,3-dimethyl-1-oxobutan-2-yl)-5-methyl-3-(2,4,5-trifluorophenyl)-4,5,6,7-tetrahydro-1H-pyrazolo[4,3-c]pyridine-1-carboxamide], the pEC50 in assay [1] (setting [4]) and in assay [2] was less than 6.00 in each case.

For `CN1CCc2c(c(-c3ccc(F)c(F)c3)nn2C(=O)N2CCC(O)CC2)C1` [Compound 45, (3-(3,4-difluorophenyl)-5-methyl-4,5,6,7-tetrahydro-1H-pyrazolo[4,3-c]pyridin-1-yl)(4-hydroxypiperidin-1-yl)methanone], the pEC50 in assay [1] (setting [4]) and in assay [2] was less than 6.00 each time.

For the compound `CNC(=O)[C@@H](NC(=O)n1nc(-c2ccc(F)cc2)c2c1CCN(C)C2)C(C)(C)C` [Compound 54, (S)—N-(3,3-dimethyl-1-(methylamino)-1-oxobutan-2-yl)-3-(4-fluorophenyl)-5-methyl-4,5,6,7-tetrahydro-1H-pyrazolo[4,3-c]pyridine-1-carboxamide], the pEC50 in assay [1] (setting [3]) and in assay [2] was more than 6.00 in each case.

As for `CNC(=O)[C@@H](NC(=O)n1nc(-c2cc(F)c(F)cc2F)c2c1CCN(CCO)C2)C(C)(C)C` [Compound 85, (S)—N-(3,3-dimethyl-1-(methylamino)-1-oxobutan-2-yl)-5-(2-hydroxyethyl)-3-(2,4,5-trifluorophenyl)-4,5,6,7-tetrahydro-1H-pyrazolo[4,3-c]pyridine-1-carboxamide], the pEC50 in assay [1] (setting [3]) and in assay [2] was more than 6.00 each time.

In the case of `CNC(=O)[C@@H](NC(=O)n1nc(-c2ccc(C(F)(F)F)cc2F)c2c1CCN(C)C2)C(C)(C)C` [Compound 43, (S)—N-(3,3-dimethyl-1-(methylamino)-1-oxobutan-2-yl)-3-(2-fluoro-4-(trifluoromethyl)phenyl)-5-methyl-4,5,6,7-tetrahydro-1H-pyrazolo[4,3-c]pyridine-1-carboxamide], the negative logarithm of the EC50 (pEC50) was less than 6.00 in assay [1] (setting [4]) and more than 6.00 in assay [2].

Take `CNC(=O)[C@@H](NC(=O)n1nc(-c2cc(F)ccc2F)c2c1CCN(C)C2)C(C)(C)C` [Compound 64, (S)-3-(2,5-difluorophenyl)-N-(3,3-dimethyl-1-(methylamino)-1-oxobutan-2-yl)-5-methyl-4,5,6,7-tetrahydro-1H-pyrazolo[4,3-c]pyridine-1-carboxamide]: the pEC50 in assay [1] (setting [4]) was less than 6.00; in assay [2], more than 6.00.

On to `CC(C)(C)[C@H](NC(=O)n1nc(-c2cc(F)c(F)cc2F)c2c1CCOC2)C(=O)N1CC[C@H](O)C1` [Compound 31, N—((S)-1-((S)-3-hydroxypyrrolidin-1-yl)-3,3-dimethyl-1-oxobutan-2-yl)-3-(2,4,5-trifluorophenyl)-6,7-dihydropyrano[4,3-c]pyrazole-1(4H)-carboxamide], for which the negative logarithm of the EC50 (pEC50) in assay [1] (setting [4]) and in assay [2] was more than 6.00 each time.

For the compound `CNC(=O)[C@@H](NC(=O)n1nc(-c2cc(C(F)(F)F)ccc2F)c2c1CCNC2)C(C)(C)C` [Compound 58, (S)—N-(3,3-dimethyl-1-(methylamino)-1-oxobutan-2-yl)-3-(2-fluoro-5-(trifluoromethyl)phenyl)-4,5,6,7-tetrahydro-1H-pyrazolo[4,3-c]pyridine-1-carboxamide], the pEC50 was less than 6.00 in assay [1] (setting [4]) and more than 6.00 in assay [2].

Consider `CC(C)(C)[C@H](NC(=O)n1nc(-c2ccc(F)c(F)c2)c2c1CCOC2)C(=O)N1CC[C@H](O)C1` [Compound 60, 3-(3,4-difluorophenyl)-N—((S)-1-((S)-3-hydroxypyrrolidin-1-yl)-3,3-dimethyl-1-oxobutan-2-yl)-6,7-dihydropyrano[4,3-c]pyrazole-1(4H)-carboxamide], for which the pEC50 in assay [1] (setting [3]) and in assay [2] was more than 6.00 each time.

In the case of `CNC(=O)[C@@H](NC(=O)n1nc(-c2cc(F)c(F)cc2F)c2c1CCNC2)C(C)(C)C` [Compound 84, (S)—N-(3,3-dimethyl-1-(methylamino)-1-oxobutan-2-yl)-3-(2,4,5-trifluorophenyl)-4,5,6,7-tetrahydro-1H-pyrazolo[4,3-c]pyridine-1-carboxamide], the pEC50 in assay [1] (setting [3]) and in assay [2] was more than 6.00 in each case.

Turning to `CC(C)(C)[C@@H](CO)NC(=O)n1nc(-c2ccc(F)c(F)c2)c2c1CCCC2` [Compound 51, (S)-3-(3,4-difluorophenyl)-N-(1-hydroxy-3,3-dimethylbutan-2-yl)-4,5,6,7-tetrahydro-1H-indazole-1-carboxamide], the pEC50 in assay [1] (setting [3]) and in assay [2] was more than 6.00 in each case.

Consider `CN1CCc2c(c(-c3cc(F)c(F)cc3F)nn2C(=O)N[C@@H](CO)c2ccccc2)C1` [Compound 70, (R)—N-(2-hydroxy-1-phenylethyl)-5-methyl-3-(2,4,5-trifluorophenyl)-4,5,6,7-tetrahydro-1H-pyrazolo[4,3-c]pyridine-1-carboxamide], for which the pEC50 in assay [1] (setting [4]) was less than 6.00; in assay [2], more than 6.00.

As for `CC[C@H](C)[C@H](NC(=O)n1nc(-c2ccc(F)c(F)c2)c2c1CCN(C)C2)C(N)=O` [Compound 50, N-((2S,3S)-1-amino-3-methyl-1-oxopentan-2-yl)-3-(3,4-difluorophenyl)-5-methyl-4,5,6,7-tetrahydro-1H-pyrazolo[4,3-c]pyridine-1-carboxamide], the pEC50 in assay [1] (setting [3]) and in assay [2] was more than 6.00 in each case.

In the case of `CN1CCc2c(c(-c3cc(F)c(F)cc3F)nn2C(=O)N[C@H](C(=O)N2CCC[C@H]2C(N)=O)C(C)(C)C)C1` [Compound 74, N—((S)-1-((S)-2-carbamoylpyrrolidin-1-yl)-3,3-dimethyl-1-oxobutan-2-yl)-5-methyl-3-(2,4,5-trifluorophenyl)-4,5,6,7-tetrahydro-1H-pyrazolo[4,3-c]pyridine-1-carboxamide], the negative logarithm of the EC50 (pEC50) in assay [1] (setting [4]) is less than 6.00; in assay [2] it was more than 6.00.
